Measured values from patent US20070213411A1, “Dispersions And Methods Of Preparing Them” (The Australian National University, priority 2003, published 2007).
Each block holds one compound with its values, some of them ahead of it.

Legend:
[1] = Theoretical water droplet contact angle on the oil surface (Young's wetting equation); format: physicochemical; details: calculated by Young's wetting equation
Description: This can be attributed to the fact that the more soluble oils undergo Ostwald ripening, allowing rapid oil droplet growth. The more hydrophobic an oil the better it is for use in methods described herein as Ostwald ripening cannot occur. A degree of hydrophobicity can be estimated by applying the Young's wetting equation to a theoretical liquid/liquid drop profile. A theoretical water droplet contact angle on the oil surface can be calculated, and if this angle is higher than about 80°, preferably higher than 90° then the oil is sufficiently hydrophobic. For example, for dodecane, the theoretical droplet contact angle is 110°. However, it should be noted that selection of a suitable carrier liquid or oil according to theoretical contact angles is a guide only and that liquids or oils having a theoretical contact angle of about 80° are not necessarily less preferred than those having a higher theoretical contact angle.

[2] = cited from earlier work; for Surface tension: against air; for Interfacial tension: against water
[3] = Droplet size distribution of oil-in-water dispersions by dynamic light scattering (Malvern Zetasizer); format: physicochemical; details: 0.2 ml/25 ml water
Description: (§1) The enhancement of oil droplet dispersion in water is most easily monitored using turbidity measurements. This enhancement can be measured by the difference between the new system (degassed) and the gassed blank, following vigorous shaking. […] Turbidity is a measure of how many droplets are dispersed in a given phase and is measured in NTU (nephelometric turbidity units) and in the results presented here is measured by light scattering. To give an understanding of the magnitude of these turbidity values, distilled water has a turbidity of 0.02 NTU, while tap water has a value of 1-2 NTU. Although useful, NTU measurements are of limited value and the results can be inaccurate if the refractive index of the dispersed phase is close to that of the dispersing phase (such as with perfluorocarbons in water) and so in some cases dynamic light scattering (DLS) has been used to obtain the droplet size distribution, as well as the charge on the oil droplets. However, careful interpretation of the DLS results is required for poly-disperse samples. Mono-disperse samples show size distribution by volume graphs (see later) over similar size ranges to the Z-average (diameter) and have a small PDI value (poly-dispersity index). The magnitude of the PDI is a measure of poly-dispersity. For poly-disperse samples the Z-average is the best estimate of average droplet size.
(§2) Mixtures of oil and water were de-gassed by a process of repeated freezing in liquid nitrogen, followed by pumping down to a pressure of 0.01 mbar and then melting in a sealed tube. The dissolved gas produced on each melting cycle was removed on re-freezing. Although this process was carried out five times, typically no further de-gassing on melting was observed after 3-4 cycles. […] (It should be noted that membrane separators and vacuum towers are used to de-gas liquids commercially.)
(§3) Dispersion of oil in water was achieved by vigorous shaking of the mixture for 8 sec in a sealed Pyrex tube. Turbidity was measured using an HF Scientific Micro 100 Turbidimeter. Particle sizes and zeta potentials were measured using a Malvern Zetasizer.

[4] = Zeta potential of oil droplets (Malvern Zetasizer); format: physicochemical; details: de-gassed mixture in water
Description: as §2, §3

[5] = Dispersion in water and its stability after vigorous shaking, de-gassed versus gassed (turbidity, visual); format: physicochemical; details: for time the dispersion is maintained / stable: de-gassed mixture in water after vigorous shaking, no added dispersants; for quality of dispersion in water (turbidity / visual): de-gassed; for quality of dispersion in water (turbidity / visual) / quality of dispersion in water (visual): after vigorous shaking; for quality of dispersion in water (visual): gassed
Description: as §1, §2, §3

Structure (SMILES): FC(F)(F)C(F)(F)C(F)(F)C(F)(F)C(F)(F)C(F)(F)C(F)(F)F [C7F16, perfluoroheptane]
- Theoretical contact angle (water droplet on oil surface) [1]: 112°^
- Surface tension [2]: 12.85 mN/m
- Interfacial tension [2]: 39.7 mN/m

Structure (SMILES): FC(F)(F)C(F)(F)C(F)(F)C(F)(F)C(F)(F)C(F)(F)C(F)(F)C(F)(F)F [C8F18, perfluorooctane]
- Theoretical contact angle (water droplet on oil surface) [1]: 113° ^
- Surface tension [2]: 14.00 mN/m
- Interfacial tension [2]: 42 mN/m

Structure (SMILES): CC(C)c1cccc(C(C)C)c1O [Propofol, 2,6-diisopropyl phenol]
- effect of added salt on the dispersion ([5]; de-gassed dispersion exposed to high salt levels, above those found in human blood): unaffected by the addition of salt
- time the dispersion is maintained / stable [5]: many hours
- quality of dispersion in water (turbidity / visual) [5]: complete dispersion of the oil
- quality of dispersion in water (visual) [5]: many large, visible droplets of the oil

Now from value to compound, other results behind:

- Theoretical contact angle (water droplet on oil surface) [1]: 113°
- average droplet diameter ([3]; de-gassed, 1 hour after vigorous shaking): about 0.6 microns
- PDI (poly-dispersity index) ([3]; de-gassed, at one hour): 0.430
- Z-average size ([3]; de-gassed, at one hour): 599.6 nm
- droplet size of size graph (Diam) ([3]; de-gassed, at one hour): 437.6 nm
- PDI (poly-dispersity index) ([3]; gassed, after 1 hour): 0.674
- Z-average size ([3]; gassed, at one hour): 1176 nm
- zeta potential of droplets [4]: −42 mV
- time the dispersion is maintained / stable [5]: many hours
Structure (SMILES): FC(F)(F)C(F)(F)C(F)(F)C(F)(F)C(F)(F)C(F)(F)C(F)(F)C(F)(F)Br [Perflubron, perfluorooctyl bromide]
- quality of dispersion in water (turbidity / visual) [5]: enhanced dispersion due to de-gassing is observed
- Surface tension [2]: 18 mN/m
- Interfacial tension [2]: 47 mN/m

- Theoretical contact angle (water droplet on oil surface) [1]: 110 °
Structure (SMILES): CCCCCCCCCCCC [dodecane, reference compound]

- quality of dispersion in water (turbidity / visual) [5]: clearly well dispersed
Structure (SMILES): COC1=CC(=O)C[C@@H](C)[C@]12Oc1c(Cl)c(OC)cc(OC)c1C2=O [griseofulvin]
- turbidity after dispersion by vigorous shaking ([5]; 0.05 g dissolved in 10 ml soybean oil, 0.2 ml of this dispersed in 25 ml water): the same as those obtained for soybean oil alone
- quality of dispersion in water (visual) [5]: solid clumps and a more transparent solution

- Theoretical contact angle (water droplet on oil surface) [1]: 111° ^
- time the dispersion is maintained / stable [5]: many hours
- quality of dispersion in water (turbidity / visual) [5]: readily dispersed
- time to phase separation after vigorous shaking ([5]; gassed mixture, 0.2 ml/25 ml water): less than a minute
Structure (SMILES): FC(F)(F)C(F)(F)C(F)(F)C(F)(F)C(F)(F)C(F)(F)F [C6F14, perfluorohexane]
- Surface tension [2]: 11.91 mN/m
- Interfacial tension [2]: 38 mN/m
